Columns and labels:
[1] = target: T1, Melatonin receptor type 1A (Homo sapiens, UniProt P48039); assay: Displacement of 2-[125I]iodomelatonin from human MT1 receptor expressed in HEK or CHO cell membranes after 120 mins
[2] = target: T2, Melatonin receptor type 1B (Homo sapiens, UniProt P49286); assay: Displacement of 2-[125I]iodomelatonin from human MT2 receptor expressed in HEK or CHO cell membranes after 120 mins
T2 sequence (P49286 whole entry): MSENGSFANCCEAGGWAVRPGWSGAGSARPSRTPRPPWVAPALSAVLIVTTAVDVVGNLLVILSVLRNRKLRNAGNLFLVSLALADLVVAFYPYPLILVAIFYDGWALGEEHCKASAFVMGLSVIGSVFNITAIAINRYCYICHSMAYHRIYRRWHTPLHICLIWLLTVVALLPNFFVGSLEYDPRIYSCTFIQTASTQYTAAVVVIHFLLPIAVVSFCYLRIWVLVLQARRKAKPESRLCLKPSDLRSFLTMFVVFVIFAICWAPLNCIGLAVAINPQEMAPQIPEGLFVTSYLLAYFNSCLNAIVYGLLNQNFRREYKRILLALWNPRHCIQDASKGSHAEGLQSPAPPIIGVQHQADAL

[3] = target: T2, Melatonin receptor type 1B; assay: Intrinsic activity at human MT2 receptor expressed in CHO cell membranes after 1 hr by [35S]GTPgammaS binding assay; type: functional
[4] = target: T1, Melatonin receptor type 1A; assay: Intrinsic activity at human MT1 receptor expressed in CHO cell membranes after 1 hr by [35S]GTPgammaS binding assay; type: functional
Homo sapiens = species on record: Homo sapiens; assay: Selectivity ratio of Ki for human MT1 receptor to Ki for human MT2 receptor

T1 sequence (P48039 whole entry): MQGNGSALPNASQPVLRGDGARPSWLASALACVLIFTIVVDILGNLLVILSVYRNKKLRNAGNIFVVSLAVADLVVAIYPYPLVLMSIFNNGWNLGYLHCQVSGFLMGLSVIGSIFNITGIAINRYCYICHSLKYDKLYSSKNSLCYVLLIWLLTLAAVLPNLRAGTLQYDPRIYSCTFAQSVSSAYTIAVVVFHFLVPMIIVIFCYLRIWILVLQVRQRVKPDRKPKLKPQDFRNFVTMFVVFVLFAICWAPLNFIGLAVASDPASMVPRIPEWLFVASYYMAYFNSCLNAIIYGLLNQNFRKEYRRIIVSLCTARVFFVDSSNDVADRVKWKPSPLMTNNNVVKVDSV

Work on `CCNC(=S)NCCc1cccc2ccc(OC)nc12` yielded a Ki [1] of 4 nM, a Ki [2] of 0.4 nM and an EC50 [3] of 1.1 nM. For the same compound, the EC50 [4] was 31 nM.

`CNC(=O)CCc1cccc2ccc(OC)nc12` was tested, and the Ki [1] was 8 nM, the Ki [2] was 0.3 nM and the EC50 [3] was 0.7 nM. For the same compound, the Ratio Ki (Homo sapiens) was 27 and the EC50 [4] was 65 nM.

`CNC(=S)NCCc1cccc2ccc(OC)nc12` gave a Ki [1] of 2 nM, a Ki [2] of 0.1 nM and an EC50 [3] of 0.1 nM. The EC50 [4] was 90 nM.

Work on `COc1ccc2ccc(CCNC(C)=O)cc2n1` yielded a Ki [1] of 58 nM and a Ki [2] of 22 nM.

`COc1ccc2cccc(CCNC(C)=O)c2n1` showed a Ki [1] of 0.3 nM, a Ki [2] of 0.2 nM and an EC50 [3] of 0.2 nM. For the same compound, the EC50 [4] was 0.8 nM.

`CNC(=S)NCCc1cccc2ncc(OC)cc12` was tested, and the Ki [1] was > 10000 nM and the Ki [2] was 250 nM.

`COc1cnc2cccc(CCNC(=O)CF)c2c1` showed a Ki [1] of 29 nM and a Ki [2] of 6 nM.

`CCNC(=S)NCCc1cccc2ncc(OC)cc12` gave a Ki [1] of 690 nM and a Ki [2] of 550 nM.

For `COC(=O)NCCc1cccc2ncc(OC)cc12`, the Ki [1] was > 10000 nM and the Ki [2] was 430 nM.

`COc1ccc2cccc(CCC(=O)NC3CC3)c2n1` showed a Ki [1] of 34 nM, a Ki [2] of 0.5 nM and a Ratio Ki (Homo sapiens) of 86.

Compound `COc1ccc2cccc(CCNC(N)=O)c2n1` has a Ki [1] of 2 nM, a Ki [2] of 0.2 nM and an EC50 [3] of 0.2 nM. The EC50 [4] was 1620 nM.

For `CNC(=O)NCCc1cccc2ccc(OC)nc12`, the Ki [1] was 0.6 nM, the Ki [2] was 0.09 nM and the EC50 [3] was 0.09 nM. It also gave an EC50 [4] of 19 nM.

For `CCNC(=O)NCCc1cccc2ncc(OC)cc12`, the Ki [1] was 575 nM and the Ki [2] was 73 nM.

Compound `COC(=O)NCCc1cccc2ccc(OC)nc12` has a Ki [1] of 7 nM, a Ki [2] of 0.3 nM and an EC50 [3] of 0.4 nM. For the same compound, the EC50 [4] was > 1000 nM.

Compound `COc1ccc2cccc(CCC(=O)NCCF)c2n1` has a Ki [1] of 19 nM and a Ki [2] of 0.3 nM.

With `COc1cnc2cccc(CCNC(C)=O)c2c1` the Ki [1] was 60 nM and the Ki [2] was 4 nM.

Work on `COc1cnc2cccc(CCNC(=O)C3CC3)c2c1` yielded a Ki [1] of 124 nM and a Ki [2] of 26 nM.

In the case of `COc1cnc2cccc(CCNC(N)=O)c2c1`, the Ki [1] is reported as 315 nM and the Ki [2] is reported as 40 nM.

Work on `CCNC(=O)NCCc1cccc2ccc(OC)nc12` yielded a Ki [1] of 0.8 nM, a Ki [2] of 0.09 nM and an EC50 [3] of 0.2 nM. It also gave an EC50 [4] of 9.5 nM.

From ChEMBL document CHEMBL3992543, “New quinolinic derivatives as melatonergic ligands: Synthesis and pharmacological evaluation” (Eur J Med Chem, 2017)
